One series concerns the target LSD1 (Homo sapiens (Human), UniProt O60341). The series can be described thus: LSD1 enzyme activity detection (HTRF). In kind it is biochemical. Particulars: HTRF, H3K4me1 substrate; read-out: Inhibition of enzymatic activity of LSD1 IC50.
Series [1] has as its target voltage-gated potassium ion channel hERG (Homo sapiens (Human), UniProt Q12809). The series can be described thus: hERG inhibition test (manual patch-clamp). To be noted: read-out: hERG IC50; manual patch-clamp.
The next series deals with NCI-H1417 cells. The series is described as follows: In vitro cell proliferation detection (CellTiter-Glo, 7 days). Format: cell-based. Particulars: Homo sapiens.
A further series in a line: Caco-2 permeability test. To be noted: human, Caco-2.
The next series deals with CYP3A4 (Homo sapiens (Human), UniProt P08684). The series is described as follows: CYP 450 enzyme inhibition test (mixed human liver microsomes, LC-MS/MS). Particulars: read-out: CYP3A4-T IC50; mixed human liver microsomes, NADPH, CYP3A4-T probe substrate.
The next series can be described thus: Rat PK test (IV and PO). For Cmax: test concentration or dose not given here. Particulars: for Cl / F: Male SD rats; for F: PO vs IV; for AUC(0-inf) / Cmax / half-life / Vd: male, SD, rat, plasma; for Vd: intravenous.
The mark [2] stands for this setting: 168 h, NCI-H1417 cells, 7 days, CellTiter-Glo, read-out: NCI-H1417 proliferation inhibition IC50.

Molecules are shown by their SMILES. Structures can show the parent of a compound that is named as a salt. Where two headings read alike, the source gives them in different places.

Sequence of voltage-gated potassium ion channel hERG (Q12809 whole entry): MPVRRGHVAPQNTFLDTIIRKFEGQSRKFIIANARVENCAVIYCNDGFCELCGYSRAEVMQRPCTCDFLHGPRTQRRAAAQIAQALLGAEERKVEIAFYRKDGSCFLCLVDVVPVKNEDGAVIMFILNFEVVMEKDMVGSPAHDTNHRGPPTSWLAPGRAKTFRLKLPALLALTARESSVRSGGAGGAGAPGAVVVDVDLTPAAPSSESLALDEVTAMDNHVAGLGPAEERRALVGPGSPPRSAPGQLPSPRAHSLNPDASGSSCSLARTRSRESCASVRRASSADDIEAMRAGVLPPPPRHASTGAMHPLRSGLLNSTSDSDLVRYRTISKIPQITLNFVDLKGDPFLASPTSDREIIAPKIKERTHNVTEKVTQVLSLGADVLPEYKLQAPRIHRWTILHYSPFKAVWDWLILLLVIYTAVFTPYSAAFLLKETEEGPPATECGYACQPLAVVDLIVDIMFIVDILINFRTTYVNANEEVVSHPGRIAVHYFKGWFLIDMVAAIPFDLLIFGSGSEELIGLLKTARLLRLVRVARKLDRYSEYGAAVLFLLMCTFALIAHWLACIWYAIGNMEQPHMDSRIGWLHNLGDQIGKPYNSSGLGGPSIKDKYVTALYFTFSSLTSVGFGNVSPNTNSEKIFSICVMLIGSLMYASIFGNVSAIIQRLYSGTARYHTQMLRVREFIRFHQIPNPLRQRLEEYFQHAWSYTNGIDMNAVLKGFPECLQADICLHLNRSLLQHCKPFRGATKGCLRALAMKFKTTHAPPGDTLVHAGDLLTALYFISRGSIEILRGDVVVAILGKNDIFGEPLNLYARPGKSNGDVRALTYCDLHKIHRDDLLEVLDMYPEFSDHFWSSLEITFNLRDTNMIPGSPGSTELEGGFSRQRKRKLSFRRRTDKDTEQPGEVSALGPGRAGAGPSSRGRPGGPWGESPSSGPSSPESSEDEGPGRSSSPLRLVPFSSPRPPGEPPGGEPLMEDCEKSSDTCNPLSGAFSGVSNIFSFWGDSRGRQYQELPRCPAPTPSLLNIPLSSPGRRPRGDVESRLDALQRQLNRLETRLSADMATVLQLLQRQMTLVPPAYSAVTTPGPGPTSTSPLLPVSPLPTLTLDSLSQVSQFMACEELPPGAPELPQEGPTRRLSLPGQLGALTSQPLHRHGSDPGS
Sequence of CYP3A4 (P08684 whole entry): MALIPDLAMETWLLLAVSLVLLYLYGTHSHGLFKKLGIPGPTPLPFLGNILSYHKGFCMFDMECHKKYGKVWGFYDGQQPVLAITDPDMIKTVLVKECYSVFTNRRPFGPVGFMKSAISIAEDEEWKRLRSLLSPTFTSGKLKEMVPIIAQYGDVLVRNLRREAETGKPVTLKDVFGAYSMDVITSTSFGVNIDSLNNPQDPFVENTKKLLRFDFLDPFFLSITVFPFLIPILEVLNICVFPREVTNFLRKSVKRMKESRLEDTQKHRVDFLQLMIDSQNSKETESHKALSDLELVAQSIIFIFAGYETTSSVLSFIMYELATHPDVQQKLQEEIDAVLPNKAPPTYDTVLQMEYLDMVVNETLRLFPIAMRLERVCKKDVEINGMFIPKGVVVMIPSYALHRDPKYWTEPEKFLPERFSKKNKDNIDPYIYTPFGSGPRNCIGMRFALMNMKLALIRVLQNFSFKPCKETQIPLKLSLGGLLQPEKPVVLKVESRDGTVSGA

In the case of `CS(=O)(=O)N1CCN(C(=O)c2cc(CN[C@@H]3C[C@H]3c3ccc(F)cc3)nc(-c3ccc(-n4cccn4)cc3)n2)CC1` [Example 2, (2-(4-(1H-pyrazol-1-yl)phenyl)-6-((((1R,2S)-2-(4-fluorophenyl)cyclopropyl)amino)methyl)pyrimidin-4-yl)(4-(methylsulfonyl)piperazin-1-yl)methanone], the IC50 at LSD1 amounted to 17.9 ± 3.2 nM. Also, in series [1], the IC50 came out at 2580 nM. Also, the IC50 in the series with NCI-H1417 cells (setting [2]) came out at 0.73 nM. For the same compound, in “Caco-2 permeability test”, the apparent permeability from apical to basolateral (Papp A→B) at 120 min turned out to be 15 ×10⁻⁶ cm/s, the Papp B→A at 120 min is 15 ×10⁻⁶ cm/s and the efflux ratio at 120 min is 1.
For the compound `COc1ccc(-c2c(O)cc(N3CCC(N)CC3)nc2-c2ccc(C#N)c(F)c2)cc1F` [Example 11, 4-(6-(4-aminopiperidin-1-yl)-3-(3-fluoro-4-methoxyphenyl)-4-hydroxypyridin-2-yl)-2-fluoroben zonitrile formate], the results for the IC50 (at LSD1; in series [1]; in the series on NCI-H1417 cells (setting [2])) were 2.9 ± 0.28 nM, over 30000 nM and 13 nM, respectively. In “Caco-2 permeability test”, this compound displayed an apical-to-basolateral permeability (Papp A→B) at 120 min of 3.66 ×10⁻⁶ cm/s. For the same compound, the Papp B→A at 120 min in “Caco-2 permeability test” is 27.2 ×10⁻⁶ cm/s. Moreover, the efflux ratio at 120 min in “Caco-2 permeability test” came out at 7.42.
Turning to `N#Cc1ccc(-c2c(-c3ccc(C(F)(F)F)c(O)c3)cnc(N3CCC(N)CC3)c2C#N)cc1F` [Example 70, 2-(4-aminopiperidin-1-yl)-4-(4-cyano-3-fluorophenyl)-5-(3-hydroxy-4-(trifluoromethyl)phenyl) nicotinonitrile hydrochloride], the IC50 is 0.5 ± 0.3 nM at LSD1, 0.885 nM in the series with NCI-H1417 cells (setting [2]) and 8710 nM at CYP3A4.
The like results for `Cc1noc2cc(-c3cnc(N4CCC(N)CC4)c(C#N)c3-c3ccc(C#N)c(F)c3)c(F)cc12` [Example 71, 2-(4-aminopiperidin-1-yl)-4-(4-cyano-3-fluorophenyl)-5-(5-fluoro-3-methylbenzo[d]isoxazol-6-yl)nicotinonitrile] were, in that order, 0.3 ± 0.2 nM, 0.338 nM and 4300 nM.
For `COc1ccc(-c2cnc(N3CC4CC3CC4N)c(C#N)c2-c2ccc(C#N)c(F)c2)cc1O` (centres unmarked) [Example 73, 2-(5-amino-2-azabicyclo [2.2.1]heptane-2-yl)-4-(4-cyano-3-fluorophenyl)-5-(3-hydroxy-4-methoxyphenyl) nicotinitrile] the same measures were 1.9 ± 0.4 nM, 1.61 nM and 7590 nM.
Turning to `COc1ccc(-c2c(OC)cc(N3CCC(N)CC3)nc2-c2ccc(C#N)c(F)c2)cc1O` [Example 89, 4-(6-(4-aminopiperidin-1-yl)-3-(3-hydroxy-4-methoxyphenyl)-4-methoxypyridin-2-yl)-2-fluorobenzonitrile], at LSD1, the IC50 stood at 0.46 ± 0.11 nM. Also, the IC50 in series [1] was found to be 13800 nM. In the series “Rat PK test (IV and PO)”, this compound showed a Cl of 58.3 mL/min/kg, an F of 13.1%, an AUC(0-inf) of 208 ng·h/mL and a Cmax of 22.5 ng/mL. In the series “Rat PK test (IV and PO)”, the half-life was 6.26 h and the Vd worked out at 13 L/kg. Also, the IC50 with NCI-H1417 cells (setting [2]) was found to be 1 nM.
For `COc1ccc(-c2c(-c3ccc(C#N)c(F)c3)nc(N3CCC(N)CC3)n3ccnc23)cc1O` [Example 124, 4-(5-(4-aminopiperidin-1-yl)-8-3-hydroxy-4-(methoxyphenyl)imidazolo[1,2-c]pyrimidin-7-yl)-2-fluorobenzonitrile], the IC50 on LSD1 came out at 0.08 ± 0.03 nM. Moreover, in series [1], the IC50 was over 30000 nM. The IC50 in the series with NCI-H1417 cells (setting [2]) was 0.163 nM. Moreover, in “Caco-2 permeability test”, the apical-to-basolateral permeability (Papp A→B) at 120 min came to 1.73 ×10⁻⁶ cm/s, the Papp B→A at 120 min worked out at 24.7 ×10⁻⁶ cm/s and the efflux ratio at 120 min is 14.3.
Take `CC(C)(O)Cc1ccc(-c2c(-c3ccc(C#N)c(F)c3)nc(N3CCC(N)CC3)n3ccnc23)cc1F` [Example 134, 4-(5-(4-aminopiperidin-1-yl)-8-(3-fluoro-4-(2-hydroxy-2-methylpropyl)phenyl)imidazolo [1,2-c]pyrimidin-7-yl)-2-fluorobenzonitrile]: the figures for the IC50 (at LSD1; in series [1]; in the series on NCI-H1417 cells (setting [2])) were 6.1 ± 1.9 nM, 18400 nM and 7.25 nM, respectively.
The like results for `COc1ccc(-c2c(-c3ccc(C#N)c(F)c3)nc(N3CCC(N)CC3)n3ccnc23)cc1C#N` [Example 135, 4-(5-(4-aminopiperidin-1-yl)-8-(3-cyano-4-methoxyphenyl)imidazolo[1,2-c]pyrimidin-7-yl)-2-fluorobenzonitrile] were, in that order, 9.6 ± 2.7 nM, 23400 nM and 8.19 nM.
Regarding `Cc1ccc(-c2c(-c3ccc(C#N)c(F)c3)nc(N3CCC(N)CC3)n3ccnc23)cc1O` [Example 136, 4-(5-(4-aminopiperidin-1-yl)-8-(3-hydroxy-4-methylphenyl)imidazolo[1,2-c]pyrimidin-7-yl)-2-fluorobenzonitrile hydrochloride], the IC50 on LSD1 was 0.06 ± 0.02 nM; in series [1], over 30000 nM; with NCI-H1417 cells (setting [2]), 0.176 nM.
The like results for `N#Cc1ccc(-c2nc(N3CCC(N)CC3)n3ccnc3c2-c2ccc(F)c(O)c2)cc1F` [Example 137, 4-(5-(4-aminopiperidin-1-yl)-8-(4-fluoro-3-hydroxyphenyl)imidazolo[1,2-c]pyrimidin-7-yl]-2-fluorobenzonitrile] were, in that order, 0.07 ± 0.05 nM, over 10000 nM and 0.553 nM.
`COc1ccc(-c2c(-c3ccc(C#N)c(F)c3)nc(N3CC4CC3CC4N)n3ccnc23)cc1O` (centres unmarked) [Example 164, 4-(5-(5-amino-2-azabicyclo[2.2. 1]heptan-2-yl)-8-(3-hydroxy-4-methoxyphenyl)imidazolo[1,2-c]pyrimidin-7-yl)-2-fluorobenzonitrile hydrochloride]: the IC50 on LSD1 is 0.4 ± 0.2 nM; with NCI-H1417 cells (setting [2]), 0.22 nM; at CYP3A4, over 10000 nM.
On to `COc1ccc(-c2c(-c3ccc(C#N)c(F)c3)nc(N3CC4CC3CC4N)n3ccnc23)cc1F` (centres unmarked) [Example 169, 4-(5-(5-amino-2-azabicyclo[2.2.1]heptane-2-yl)-8-(3-fluoro-4-methoxyphenyl)imidazolo[1,2-c]pyrimidin-7-yl)-2-fluorobenzonitrile hydrochloride], for which the IC50 at LSD1 was 4.3 ± 0.9 nM; in the series on NCI-H1417 cells (setting [2]), 4 nM; at CYP3A4 it was over 10000 nM.
Take `CS(=O)(=O)N1CCN(C(=O)c2cc(CN[C@@H]3C[C@H]3c3ccc(F)cc3)nc(-c3ccc(-n4ccnn4)cc3)n2)CC1` [Example 228]: the IC50 at LSD1 was found to be 22.9 nM; in series [1] it was 7210 nM; with NCI-H1417 cells (setting [2]) it was 4.68 nM.
The like results for `O=C(c1cc(CN[C@@H]2C[C@H]2c2ccc(F)cc2)nc(-c2ccc(-n3cccn3)cc2)n1)N1CCC(F)(F)CC1` [Example 230] were, in that order, 47.9 nM, 4990 nM and 3.92 nM.
For `O=C(NC1CCOCC1)c1cc(CN[C@@H]2C[C@H]2c2ccc(F)cc2)nc(-c2ccc(-n3cccn3)cc2)n1` [Example 233] the same measures were 7.2 ± 2.3 nM, 4470 nM and 9.36 nM.
For the compound `Cc1ccc(-c2nc(CN[C@@H]3C[C@H]3c3ccc(F)cc3)cc(C(=O)NC3CCOCC3)n2)cc1O` [Example 236], at LSD1, the IC50 worked out at 21.7 nM. For the same compound, in series [1], the IC50 was determined as 5400 nM. Also, the IC50 in the series with NCI-H1417 cells (setting [2]) was found to be 2.82 nM. Further, in “Caco-2 permeability test”, the apical-to-basolateral permeability (Papp A→B) at 120 min was determined as 1.44 ×10⁻⁶ cm/s, the apparent permeability from basolateral to apical (Papp B→A) at 120 min was found to be 3.99 ×10⁻⁶ cm/s and the efflux ratio at 120 min turned out to be 2.76.
For `CC1CN(C(=O)c2cc(CN[C@@H]3C[C@H]3c3ccc(F)cc3)nc(-c3ccc(C#N)cc3)n2)CC(C)N1` (stereo partly drawn) [Example 239, 4-(4-(3,5-dimethyl-piperazine-1-carbonyl)-6-((((1R,2S)-2-(4-fluoro-phenyl)cyclopropyl)amino)methyl)pyrimidin-2-yl) benzonitrile], the IC50 at LSD1 is 4.8 ± 1.8 nM; in the series on NCI-H1417 cells (setting [2]), 0.986 nM; on CYP3A4 it was over 10000 nM.
Take `O=C(NC1CCOCC1)c1cc(CN[C@@H]2C[C@H]2c2ccc(F)cc2)nc(-c2ccc(N3CCOCC3)cc2)n1` [Example 246, 6-(((1R,2S)-2-(4-fluorophenyl)cyclopropyl)amino)methyl)-2-(4-morpho-linophenyl)-N-(tetrahydro-2H-pyran-4-yl)pyrimidine-4-carboxamide hydrochloride]: the IC50 on LSD1 is 18.1 nM. The IC50 in series [1] was 8550 nM. In addition, in the series “Rat PK test (IV and PO)”, the Cl came out at 39.6 mL/min/kg, the F was 9.54%, the AUC(0-inf) was determined as 265 ng·h/mL and the concentration peaked (Cmax) at 56.2 ng/mL. In “Rat PK test (IV and PO)”, the half-life was 4.96 h and the Vd came to 4.22 L/kg. The IC50 in the series on NCI-H1417 cells (setting [2]) came to 1.78 nM. In addition, in the series “Caco-2 permeability test”, the apparent permeability from apical to basolateral (Papp A→B) at 120 min was 3.59 ×10⁻⁶ cm/s, the basolateral-to-apical permeability (Papp B→A) at 120 min was found to be 3.36 ×10⁻⁶ cm/s and the efflux ratio at 120 min amounted to 0.96.
As to `COc1ccc(-c2c(C#N)cc(N3CCC(N)CC3)nc2-c2ccc(C#N)c(F)c2)cc1O` [Example 273, 6-(4-aminopiperidin-1-yl)-2-(4-cyano-3-fluorophenyl)-3-(3-hydroxy-4-methoxyphenyl)pyridine-4-carbonitrile], the values for the IC50 at LSD1, with NCI-H1417 cells (setting [2]) and on CYP3A4 were 0.2 ± 0.05 nM, 1.19 nM and over 10000 nM, respectively.
As for `COc1ccc(-c2c(-c3ccc(C#N)c(F)c3)nc(N3CCC(N)CC3)c3c2OCC(=O)N3)cc1O` [Example 280, 4-(5-(4-aminopiperidin-1-yl)-8-(3-hydroxy-4-methoxyphenyl)-3-oxo-3,4-dihydro-2H-pyridine[4,3-b][1,4]oxazin-7-yl)-2-fluorobenzonitrile hydrochloride], the IC50 in the series with NCI-H1417 cells (NCI-H1417, 168 h, read-out: NCI-H1417 proliferation inhibition IC50(nM)) was 2.7 ± 1 nM; on CYP3A4 it was over 10000 nM.

These data come from US20240216357A1 (SICHUAN HUIYU PHARMACEUTICAL CO., LTD., priority 2021, published 2024).
